Assay results from patent US7019000B1, “Method of treating a disease condition caused or exacerbated by an HPV” (Institute of Molecular & Cell Biology, priority 1998, dated 2006).

Assays:
[1] = biological target: T1, E6 binding to E6BP and E6AP (Human papillomavirus type 16, UniProt P03126); assay: GST-pulldown experiment, in vitro translated E6 binding to GST-E6BP/GST-E6AP; parameters: species or system HPV-16; settings: 35S-Cys in vitro translated E6
T1 construct: The open reading frame of HPV-16 E6, cloned into the Hind III and PstI site of the pSP64 plasmid; made in house; host or cells: TNT-SP6 coupled reticulocyte lysate (Promega) for E6; E. coli AB1899 for the GST fusions
Experimental: The open reading frame of HPV-16 E6, cloned into the Hind III and PstI site of the pSP64 plasmid (33), was in vitro translated with ^35S-cysteine by using the TNT-SP6 Coupled Reticulocyte Lysate System as recommend by the manufacturer (Promega). All washing and binding reactions were performed with the E6BP-binding buffer described (5) but without DTT (100 mM NaCl, 100 mM Tris-HCl pH8.0, 1% NP40, 0.1% nonfat dry milk and 1 mM PMSF. 40 μl of in vitro translated E6 plus 360 μl of E6BP-binding buffer were incubated for 2 hrs at room temperature with test compounds at difference concentrations from 0–1 mM (dissolved in DMSO at 1%), 5 mM EDTA, and H2O2 at 0.3% (85 mM). The sample was then passed over columns captaining glutathione-sepharose beads with bound GST, GST-E6, GST-E6BP or GST-E6AP proteins. The beads were heated to 95° C. in 50 μl Laemmli sample buffer (BIO-RAD) with 2.5% 2-mercaptoethanol, subjected to electrophoresis on a 15% polyacrylamide gel, fixed, stained, and autoradiographed. Interference with complex formation identified reactive compounds. Desitometric quantification was performed with a BIO-RAD/GS700 imaging desitometer.

[2] = system: HPV containing cell lines as HeLa, SiHa and Caski, compared to HPV-negative cell lines MCF7, HEPG2, (HaCat, HT3, 444); assay: Cell viability (WST1 assay), panel of HPV-positive and HPV-negative cell lines; assay type: cell-based, human
Experimental: Zinc finger proteins are required for maintenance of cell viability. Preferably, the compounds for use in the present invention are specific in their ability to affect the viability of MPV containing cells, with little or no cytotoxic effects on the cellular functioning of healthy non-MPV containing cells. The viability of MPV-infected cells (and non infected cells) in the presence of compounds of Formulae (I) or (II) can be measured by incubating with the tetrazolium salt WST1 (Roche Molecular Biochemicals, Manneheim Germany) and measuring the absorption readings thereof (WST1 assay).
(§1) All cell lines were obtained from the American Type Culture Collection (Manassas, Va.) unless otherwise noted. SiHa (human cervical epithelial tumor line, HPV16-positive), CaSki (human cervical epithelial tumor line, HPV16-positive), HaCat (immortalized human skin epithelial cell line, HPV-negative), HeLa (human cervical epithelial tumor line, HPV18-positive), 444 (hybrid of HeLa and fibroblast, HPV18-positive) obtained from Eric Stanbridge (Universitv of California, Irvine), MCF7 (human mammary epithelial tumor cell line, HPV-negative), HT3 (human cervical epithelial tumor cell line, HPV-negative) was obtained from the German Cancer Research Institute/DKFZ-Heidelberg, and HepG2, (human liver epithelial tumor cell line, HPV-negative), were grown in Dulbecco's modified Eagle medium (DMEM) supplemented with 10% fetal calf serum, 100 U penicillin and 1000 U streptomycin. Cells were allowed to attach to the surface of microwell dishes overnight and subsequently, incubated with medium containing the zinc ejecting compounds at the concentrations (10–100 μM). Viability of the cells was scored by measuring the absorption of the tetrazolium salt WST1 (Roche Molecular Biochemicals, Mannheim, Germany) in an Elisa-plate reader (Tecan, Salzburg, Austria) at a wavelength of 450 nm and a reference wavelength of 630 nm.
A total of 10 000 cells per well were plated on 24 well plates, after attachment overnight, they were treated 3 times in 3 days with C16 at 10 μM and 50 μM. The activity of C16 was also compared with that of C4 (azodicarbonamide) which causes ejection of zinc from HIV-1 NCp7 and is currently used in clinical trials for the treatment of AIDS.

SiHa, Caski, HeLa = assay: Cell viability (WST1 assay), cervical epithelial tumour cells; assay type: cell-based, human; settings: 50 μM, treated 3 times in 3 days
Description: as §1, with “nm. […]” for “nm.”

[3] = system: PARP cleavage in HeLa cells; assay: Western blot detection of PARP cleavage, HeLa; assay type: cell-based, human; settings: 100 μM, one day
Experimental: (§2) 10^6 cells were plated on 10 cm petri-dishes with 10 ml medium and after attachment overnight, treated with 100 μM C16 or 0.5% DMSO for one day. At the time of cell harvest most C16-treated cells were still attached to the plate. Cells were harvested using a rubber policeman and lysed in 10 mM Hepes buffer, pH 7.2, 150 mM NaCl, 0.2% Nonidet-P40 (NP40) and 1 mM PMSF, followed by centrifugation. 20 μg of protein was loaded onto a 12% SDS-polyacrylamide gel, transferred to a nitrocellulose membrane and the membrane blocked with 5% nonfat dry milk in 20 mM Tris-Cl, pH 7.6, 150 mM NaCl, 0.05% Tween-20 overnight at 4° C. The membrane was then probed with primary antibodies against p53 (Santa Cruz Biotechnology, Santa Cruz, Calif.), β-actin (Sigma, St. Louis, Mo.) or PARP (C210, Centre de Research du Chul, Quebec, Canada) and followed by incubation with horseradish peroxidase-conjugated secondary antibody (Pierce, Rockford, Ill.). Finally, the blot was treated with an enhanced chemiluminescent detection substrate (SuperSignal, Pierce) and autoradiographed.
(§3) Increases in P53 expression are known to be associated with programmed cell death (apoptosis) (29), therefore PARP cleavage, a hallmark of apoptosis was examined in C16 treated cells.

[4] = system: PARP cleavage in HaCat cells; assay: Western blot detection of PARP cleavage, HaCat; assay type: cell-based, human; settings: 100 μM, one day; HPV-negative HaCat cells (mutant p53)
Experimental: as §2, §3

T1 sequence (P03126 whole entry, the tested form may be a part): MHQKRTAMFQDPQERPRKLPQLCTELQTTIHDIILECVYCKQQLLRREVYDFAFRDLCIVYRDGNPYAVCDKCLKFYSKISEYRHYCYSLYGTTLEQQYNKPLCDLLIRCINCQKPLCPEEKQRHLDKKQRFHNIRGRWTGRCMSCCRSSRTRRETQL

C1CN(SSN2CCOCC2)CCO1 [Compound C16]
inhibition of E6 binding to E6BP and E6AP (GST-pulldown, FIG. 2) [1]: inhibits E6 binding to both cellular proteins
effective concentration in cell viability assays [2]: 50 µM
WST1 ([2]; 50 μM in cell culture): +
WST1-spec ([2]; 50 μM, HPV containing vs HPV-negative cell lines): +
inhibition of cell viability (SiHa, Caski, HeLa): substantial and specific inhibition of cell viability
PARP cleavage [3]: PARP cleavage was observed
PARP cleavage [4]: not
